Laboratory results taken from the supplement of paper PMC8882468.

Legend:
Experiment in all cases: CTG-3D luminescence at 96 h relative to day-0 seeding control (ratio to day 0); higher = more growth / less cytotoxicity; PDxO 3D drug screen, 96 h, CTG-3D normalised to day-0 seeding control.
[1] = tested on: HCI-011.E2 (organoid from an ER-positive breast cancer xenograft)
[2] = tested on: HCI-012 (organoid from a breast cancer xenograft)
[3] = tested on: HCI-008 (organoid from a HER2-enriched breast cancer xenograft)
[4] = tested on: HCI-005.E2 (organoid from a breast cancer xenograft with a HER2-positive history)
[5] = tested on: HCI-010 (organoid from a breast cancer xenograft)
[6] = tested on: HCI-015 (organoid from a triple-negative breast cancer xenograft)
[7] = tested on: HCI-019 (organoid from a triple-negative breast cancer xenograft)

Nc1ccn([C@@H]2O[C@H](CO)[C@@H](O)C2(F)F)c(=O)n1 [gemcitabine]
CTG-3D luminescence at 96 h
Conditions	12.5 pM	0.00025 µM	0.005 µM	0.1 µM	1 µM	10 µM	100 µM	625 fM
[1]	1.72	1.78	1.43	1.87	1.54	1.78	1.6	1.9
[4]	1.6	1.96	1.71	0.511	0.224	0.406	0.438	1.65

CTG-3D luminescence at 96 h
Conditions	12.5 pM	0.00025 µM	0.005 µM	0.1 µM	1 µM	10 µM	100 µM	625 fM
[1], days in culture: 74	2.11	2.93	2.13	2.09	2.18	2.75	2.12	2.22
[2], days in culture: 143	2.04	2.09	1.86	0.136	0.104	0.118	0.054	1.61
[2], days in culture: 162	2.63	2.42	1.38	0.146	0.113	0.113	0.0256	2.7
[2], days in culture: 201	2.68	1.42	1.5	0.0613	0.383	0.0794	0.0454	1.69
[3], days in culture: 228	1.403	1.8	1.3404	0.6483	0.596	0.717	0.362	1.48
[3], days in culture: 244	1.25	1.74	1.74	1.26	0.69	0.873	0.465	2.18
[5], days in culture: 52	2.22	2.17	0.657	0.455	0.327	0.234	0.123	2.32
[5], days in culture: 65	1.64	1.79	0.508	0.23	0.163	0.0878	0.0546	1.68
[5], days in culture: 103	3.39	3.81	0.867	0.503	0.479	0.241	0.123	3.42
[6], days in culture: 172	2.22	1.3	1.95	0.109	0.123	0.136	0.152	2.75
[6], days in culture: 191	2.28	1.52	0.975	0.116	0.114	0.105	0.109	1.5
[6], days in culture: 218	1.86	1.48	0.887	0.138	0.105	0.107	0.0645	1.8
[7], days in culture: 110	1.7	1.3	0.347	0.296	0.241	0.237	0.181	2.3
[7], days in culture: 131	2.42	3.53	0.976	0.427	0.344	0.344	0.213	3.6
[7], days in culture: 152	2.8	4.1	0.623	0.432	0.375	0.521	0.424	2.77

CC(C)(C(=O)NCC(F)(F)C(F)(F)F)C(=O)N[C@@H]1C(=O)Nc2ccccc2-c2ccccc21
CTG-3D luminescence at 96 h
Conditions	12.5 pM	0.00025 µM	0.005 µM	0.1 µM	1 µM	10 µM	100 µM	625 fM
[1]	1.55	1.61	1.49	1.97	1.71	2.01	1.76	1.94
[4]	1.47	1.48	1.45	1.8	1.18	1.29	1.03	1.54

CTG-3D luminescence at 96 h
Conditions	12.5 pM	0.00025 µM	0.005 µM	0.1 µM	1 µM	10 µM	100 µM	625 fM
[1], days in culture: 74	2.34	1.83	1.89	1.8	1.57	2.5	1.76	1.73
[2], days in culture: 143	1.62	1.71	1.71	2.2	2.22	2.41	1.37	1.72
[2], days in culture: 162	2.77	1.65	1.36	2.46	1.82	2.59	1.53	3.16
[2], days in culture: 201	2.67	2.23	1.91	1.9	2.48	1.51	2.23	1.61
[3], days in culture: 228	1.74	1.41	1	1.3	1.17	1.68	1.05	1.81
[3], days in culture: 244	1.18	1.67	1.24	1.59	1.45	1.45	0.931	2.05
[5], days in culture: 52	2.08	1.91	2.38	2.13	1.86	1.9	1.24	2.2
[5], days in culture: 65	1.59	1.67	1.85	1.82	1.7	1.58	0.419	1.79
[5], days in culture: 103	2.86	2.96	2.93	2.95	2.98	2.72	2.02	3.05
[6], days in culture: 172	1.79	0.907	1.41	0.52	0.649	0.927	0.996	1.66
[6], days in culture: 191	2.23	0.752	0.752	0.54	0.523	0.502	0.509	1.89
[6], days in culture: 218	1.79	1.02	1.03	0.889	0.743	0.516	0.649	1.97
[7], days in culture: 110	1.83	1.52	1.54	2.23	1.47	2.09	1.37	1.84
[7], days in culture: 131	2.53	3.17	3.05	3.09	2.31	3.61	2.28	4.34
[7], days in culture: 152	3.04	2.87	3.36	1.92	2.19	2.41	1.12	1.98

C[C@@H]1COCCN1c1cc(C2([S@](C)(=N)=O)CC2)nc(-c2cc[nH]c3nccc2-3)n1 [ceralasertib]
CTG-3D luminescence at 96 h
Conditions	12.5 pM	0.00025 µM	0.005 µM	0.1 µM	1 µM	10 µM	100 µM	625 fM
[1]	1.56	1.76	1.56	1.78	1.42	1.02	0.326	1.89
[4]	1.83	1.7	1.86	1.9	1.16	0.849	0.6	1.78

CTG-3D luminescence at 96 h
Conditions	12.5 pM	0.00025 µM	0.005 µM	0.1 µM	1 µM	10 µM	100 µM	625 fM
[1], days in culture: 74	2.18	2.33	1.97	1.85	1.53	0.982	0.237	1.86
[2], days in culture: 143	2.09	2.04	2.05	2.14	1.8	0.748	0.319	2.02
[2], days in culture: 162	2.52	2.31	2.18	3.14	1.92	1.3	0.451	3.18
[2], days in culture: 201	2.62	2.22	1.56	1.68	2.3	0.577	0.973	1.75
[3], days in culture: 228	1.99	1.95	1.41	1.81	1.36	0.531	0.212	1.72
[3], days in culture: 244	1.32	2.13	2.05	2.01	1.26	0.71	0.334	2.35
[5], days in culture: 52	2.13	2.39	2.26	2.04	0.835	0.422	0.238	2.24
[5], days in culture: 65	1.69	1.62	1.85	1.57	0.693	0.3	0.152	1.65
[5], days in culture: 103	3.6	3.3	3.45	3	1.49	0.548	0.325	3.14
[6], days in culture: 172	2.39	2.46	2.2	1.24	2.01	0.531	0.385	2.27
[6], days in culture: 191	1.99	1.33	1.19	1.08	1.25	0.413	0.258	1.52
[6], days in culture: 218	1.79	1.5	1.72	1.55	1.2	0.408	0.265	1.58
[7], days in culture: 110	1.9	1.2	1.15	2	0.748	0.526	0.468	1.62
[7], days in culture: 131	2.22	3.35	3.06	3.3	1.98	0.424	0.71	3.75
[7], days in culture: 152	2.6	2.77	2.34	2.22	1.1	0.604	0.499	2.45

O=C(/C=C/c1cccnc1)NCCCCC1CCN(C(=O)c2ccccc2)CC1 [FK866]
CTG-3D luminescence at 96 h
Conditions	12.5 pM	0.00025 µM	0.005 µM	0.1 µM	1 µM	10 µM	100 µM	625 fM
[1]	1.74	1.7	1.37	1.62	1.48	1.75	1.55	1.87
[4]	1.39	1.97	1.39	0.142	0.135	0.267	0.166	1.93

CTG-3D luminescence at 96 h
Conditions	12.5 pM	0.00025 µM	0.005 µM	0.1 µM	1 µM	10 µM	100 µM	625 fM
[1], days in culture: 74	2.62	2.62	2.29	1.99	2.77	2.79	2.06	2.32
[2], days in culture: 143	1.77	2.17	0.328	0.0872	0.0769	0.0863	0.175	1.84
[2], days in culture: 162	2.18	2.1	0.129	0.0723	0.0448	0.085	0.127	2.72
[2], days in culture: 201	2.67	0.11	0.33	0.0389	0.128	0.0435	0.115	1.67
[3], days in culture: 228	1.646	1.91	0.904	0.206	0.125	0.168	0.162	1.38
[3], days in culture: 244	1.37	1.87	1.86	0.263	0.186	0.197	0.173	1.82
[5], days in culture: 52	2.32	2.72	1.25	0.204	0.17	0.139	0.119	2.36
[5], days in culture: 65	1.59	1.73	0.682	0.29	0.227	0.202	0.166	1.66
[5], days in culture: 103	3.4	3.45	2.07	0.97	0.904	0.705	0.347	3.29
[6], days in culture: 172	2.55	0.705	0.752	0.206	0.213	0.158	0.29	2.38
[6], days in culture: 191	2.04	1.32	0.805	0.141	0.243	0.167	0.215	1.64
[6], days in culture: 218	1.79	1.55	0.648	0.169	0.147	0.133	0.158	1.86
[7], days in culture: 110	2.11	0.4	0.0804	0.0554	0.0484	0.0475	0.042	2.64
[7], days in culture: 131	1.91	1.42	0.669	0.542	0.448	0.436	0.137	3.64
[7], days in culture: 152	1.88	1.08	0.557	0.476	0.267	0.142	0.0796	1.93

Cc1cc(Nc2ncnc3ccc(NC4=NC(C)(C)CO4)cc23)ccc1Oc1ccn2ncnc2c1 [tucatinib]
CTG-3D luminescence at 96 h
Conditions	12.5 pM	0.00025 µM	0.005 µM	0.1 µM	1 µM	10 µM	100 µM	625 fM
[1]	1.7	1.59	1.4	1.87	1.52	1.91	0.142	1.5
[4]	1.56	1.61	2.08	2	1.47	1.53	0.00612	2.09

CTG-3D luminescence at 96 h
Conditions	12.5 pM	0.00025 µM	0.005 µM	0.1 µM	1 µM	10 µM	100 µM	625 fM
[1], days in culture: 74	2.22	2.98	1.74	2.19	2.18	3	0.399	2.84
[2], days in culture: 143	2.24	2.35	2.17	2.39	2.43	1.99	0.0289	2.05
[2], days in culture: 162	2.64	2.24	1.87	3.58	2.71	2.41	0.0168	2.94
[2], days in culture: 201	2.71	2.13	1.62	1.73	2.34	1.37	0.053	1.83
[3], days in culture: 228	1.79	1.66	1.49	1.85	1.83	1.5	0.0233	1.8641
[3], days in culture: 244	1.41	1.81	2.11	1.99	1.83	1.84	0.0167	2.29
[5], days in culture: 52	2.07	2.16	2.18	2.37	2.53	2.2	0.0134	2.34
[5], days in culture: 65	1.6	1.68	1.97	1.81	1.83	1.4	0.008	1.64
[5], days in culture: 103	3.37	3.95	3.45	3.39	3.5	2.84	0.014	3.37
[6], days in culture: 172	2.53	1.9	2.05	1.54	1.91	1.53	0.0569	2.67
[6], days in culture: 191	1.69	1.49	1.75	0.921	1.58	0.759	0.0182	1.67
[6], days in culture: 218	2.15	1.83	1.97	1.85	1.5	1.64	0.0854	1.8
[7], days in culture: 110	2.14	1.65	1.28	1.81	1.13	2.33	0.029	2.47
[7], days in culture: 131	2.25	3.22	3.6	3.65	2.9	3.09	0.0325	4.09
[7], days in culture: 152	3.48	3.89	3.04	1.67	1.99	2.26	0.0487	2
